Test results published in ChEMBL document CHEMBL1201862, “PubChem BioAssay data set” (2004).
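Following 48 hours of exposure in 96-well plates, responses at five concentrations were used to interpolate endpoints linearly. GI50 is the concentration that inhibits growth by half.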 Activity calls are given as the source filed them. Cut-off read from the data, not from the text of the source: active = GI50 up to about 1.1 µM and inactive = higher.

Columns and labels:
Assay in all cases: NCI-60 cell line screen, 48 h
K562 = test system: K562
HOP-62 = test system: HOP-62
HCC 2998 = test system: HCC 2998
SF-268 = test system: SF-268
M14 = test system: M14
BT-549 = test system: BT-549
SN12C = test system: SN12C
HCT-116 = test system: HCT-116
HT-29 = test system: HT-29
SNB-19 = test system: SNB-19
UACC-62 = test system: UACC-62
MOLT-4 = test system: MOLT-4
CAKI-1 = test system: CAKI-1
Malme-3M = test system: Malme-3M
CCRF-CEM = test system: CCRF-CEM
OVCAR-5 = test system: OVCAR-5
RXF 393 = test system: RXF 393
RPMI-8226 = test system: RPMI-8226
SK-MEL-2 = test system: SK-MEL-2

Row | Structure (SMILES) | GI50 (K562) | GI50 (HOP-62) | GI50 (HCC 2998) | GI50 (SF-268) | GI50 (M14) | GI50 (BT-549) | GI50 (SN12C) | GI50 (HCT-116) | GI50 (HT-29) | GI50 (SNB-19) | GI50 (UACC-62) | GI50 (MOLT-4) | GI50 (CAKI-1) | GI50 (Malme-3M) | GI50 (CCRF-CEM) | GI50 (OVCAR-5) | GI50 (RXF 393) | GI50 (RPMI-8226) | GI50 (SK-MEL-2)
1 | C[C@]12CCC(=O)C=C1CC[C@@H]1C2CC[C@]2(C)Nc3c(ncn3-c3ccc(F)cc3)CC12 (stereo partly specified) | 5.82 µM (inactive) | 37.8 µM (inactive) | 20.2 µM (inactive) | 19.1 µM (inactive) | 23.8 µM (inactive) | 20.3 µM (inactive) | 41.3 µM (inactive) | 15 µM (inactive) | 18.9 µM (inactive) | 49.2 µM (inactive) | 16.1 µM (inactive) | 23.3 µM (inactive) | 46.2 µM (inactive) | 18.9 µM (inactive) | 21 µM (inactive) | 40.7 µM (inactive) | 5.56 µM (inactive) |  | 
2 | Clc1cccc(-c2nc3cccc4c3n2Cc2ncccc2-4)c1 | > 100 µM (inactive) | 36.1 µM (inactive) | > 100 µM (inactive) | 32.8 µM (inactive) | > 100 µM (inactive) | > 100 µM (inactive) | > 100 µM (inactive) | > 100 µM (inactive) | > 100 µM (inactive) | 23.9 µM (inactive) | 56.6 µM (inactive) |  | 8.02 µM (inactive) | > 100 µM (inactive) | > 100 µM (inactive) | > 100 µM (inactive) | 21.9 µM (inactive) |  | 
3 | Nc1nc(O)c([I+]c2ccccc2)c(=O)[nH]1 | > 100 µM (inactive) | > 100 µM (inactive) | > 100 µM (inactive) | > 100 µM (inactive) |  | 57.1 µM (inactive) | > 100 µM (inactive) | > 100 µM (inactive) | > 100 µM (inactive) | > 100 µM (inactive) |  | > 100 µM (inactive) | > 100 µM (inactive) | > 100 µM (inactive) | > 100 µM (inactive) | > 100 µM (inactive) | > 100 µM (inactive) | > 100 µM (inactive) | 
4 | CCOC(=O)C1c2[nH]c3ccccc3c2CCN1C(=O)c1ccco1 (stereo unspecified) | > 10 µM (inactive) | > 10 µM (inactive) | > 10 µM (inactive) | > 10 µM (inactive) | > 10 µM (inactive) | > 10 µM (inactive) | > 10 µM (inactive) | > 10 µM (inactive) | > 10 µM (inactive) | > 10 µM (inactive) | > 10 µM (inactive) | > 10 µM (inactive) | > 10 µM (inactive) | > 10 µM (inactive) | > 10 µM (inactive) |  |  | > 10 µM (inactive) | 
5 | C#CCOCC12C=CC(O1)C1COC(=O)C12 (stereo unspecified) | > 100 µM (inactive) | > 100 µM (inactive) | > 100 µM (inactive) | > 100 µM (inactive) | > 100 µM (inactive) | > 100 µM (inactive) | > 100 µM (inactive) | > 100 µM (inactive) | > 100 µM (inactive) | > 100 µM (inactive) | > 100 µM (inactive) | > 100 µM (inactive) | > 100 µM (inactive) | > 100 µM (inactive) | > 100 µM (inactive) | > 100 µM (inactive) | > 100 µM (inactive) | > 100 µM (inactive) | 
6 | Cc1cc(OCc2nc(N)nc(N)c2-c2ccc(Cl)c(Cl)c2)ccc1[N+](=O)[O-] | 0.0255 µM (active) | 0.379 µM (active) |  | 0.771 µM (active) | 0.104 µM (active) | 1.03 µM (active) | 0.726 µM (active) | 0.0502 µM (active) | 0.0927 µM (active) | 0.743 µM (active) | 0.0585 µM (active) | 0.0933 µM (active) | 0.558 µM (active) | 2.59 µM (inactive) | 0.0235 µM (active) | 0.45 µM (active) | 0.794 µM (active) | 1.46 µM (inactive) | 1.41 µM (inactive)
